# Measurements published in patent US8552068B2, “Compositions and methods” (priority 2004, dated 2013).
# Entries after “also recorded” stand apart in the source; their conditions may differ.
# Tested on: not listed separately
# Test: Deoxygenation and exposure of carrier to NO gas (suitability for infusion)
# Assay type: physicochemical
# Conditions: not given
# Protocol: (§1) Different carrier media solutions (table 1) were dissolved and diluted with saline or water to obtain different concentration of the solutions. The solution was then placed in a gas-tight chamber and deoxygenated by means of helium bubbling for 10 min. The glass chamber was then gassed with pure nitric oxide gas for 3-4 min.
row,Molecule,behaviour when deoxygenated and exposed to NO gas
1,N[C@@H](CS)C(=O)O [L-cysteine],"a copious precipitate, unsuitable for infusion, was formed"

# Tested on: Artificially-ventilated pentobarbital anesthetised rabbits
# Test: Intravenous infusion of carrier solutions saturated with pure nitric oxide gas; exhaled NO and MAP
# Assay type: in vivo, rabbit
# Conditions: compared to the saline control
# Protocol: Male white New Zealand rabbits were subjected to different doses of an intravenous infusion of NO-substituted solutions at different doses. Several physiological parameters were measured during the experiments, including NO concentration in mixed exhaled gas (FENO).
# as §1
# Data are given as mean±SEM.
row,Molecule,effect as NO carrier / NO delivering capacity (words)
1,"CC(C)O [Carrier 2-PropanoI, 2-propanol]",noticeable effect; also recorded: marked effect
2,O=CC[C@H](O)[C@H](O)CO [2-deoxy-Ribose],noticeable effect
3,Dextran [Dextran (15%)],noticeable effect; also recorded: positive results
4,CC(=O)N[C@@H](CS)C(=O)O [N-Acetylcysteine],noticeable effect
5,Fucoidan [Fucoidan (10%)],noticeable effect
6,"CC(O)CO (stereo not drawn) [1,2-Propanediol]",noticeable effect; also recorded: exhibited NO delivering capacity
7,Inulin [Inulin (15%)],noticeable effect
8,"O=C(CO)[C@@H](O)[C@H](O)[C@H](O)CO [Fructose (60%), Fructose]",noticeable effect
9,C[C@H](O)[C@@H](O)[C@@H](O)[C@H](O)C=O [Fucose],noticeable effect
10,OCC(O)CO [Glycerol],act as a selective NO carrier
11,O=C(O)[C@H](O)[C@@H](O)[C@H](O[C@@H]1O[C@H](CO)[C@H](O)[C@H](O)[C@H]1O)[C@H](O)CO [Lactobionic acid],noticeable effect
12,"OC[C@@H](O)[C@@H](O)[C@H](O)[C@H](O)CO [Mannitol (20%), Mannitol]",noticeable effect; also recorded: positive results
13,PEG 400,positive results
14,"COC1O[C@H](CO)[C@@H](O)[C@H]1O (stereo partly drawn) [1-O-methyI-Ribose, 1-O-methyl-ribose]",noticeable effect
15,Polyethylene glycol,noticeable effect
16,"OC[C@@H](O)[C@@H](O)[C@H](O)[C@@H](O)CO [Sorbitol (60%), Sorbitol]",noticeable effect
17,"OCCCO [1,3-Propanediol]",noticeable effect; also recorded: exhibited NO delivering capacity
18,"OC[C@H]1O[C@@](CO)(O[C@H]2O[C@H](CO)[C@@H](O)[C@H](O)[C@H]2O)[C@@H](O)[C@@H]1O [Sucrose (60%), Sucrose]",noticeable effect
19,"O=C[C@H](O)[C@H](O)[C@H](O)CO [Ribose (50%), Ribose]",noticeable effect

# Same assay, conditions: compared to the saline control; listed as glycerol
row,Molecule,effect as NO carrier / NO delivering capacity (words)
1,OCC(O)CO [Glycerol],noticeable effect

# Same assay, conditions: infusion versus pre-infusion
Molecule,"Exhaled NO, Change (%)","Exhaled NO, Change (absolute value)","MAP, Change (%)","MAP, Change (absolute value)"
C[C@H](N)C(=O)O [Alanine],0%,0 ppb,–,–
"CC(C)O [Carrier 2-PropanoI, 2-propanol]",1400%,180 ppb,−15%,−14.7 cmH2O
"NC(CO)CO [2-Amino-1,3-propanediol]",14%,2.4 ppb,–,–
O=C[C@H](O)[C@@H](O)[C@H](O)[C@H](O)C(=O)O [Glucuronic acid],0%,0 ppb,–,–
O=CC[C@H](O)[C@H](O)CO [2-deoxy-Ribose],269%,32.7 ppb,–,–
"Heparin [Heparin (15000 IU/ml, 10%)]",−5%,−0.6 ppb,−12%,−8.8 cmH2O
Dextran [Dextran (15%)],24%,2.8 ppb,−34%,−45.5 cmH2O
N[C@H]1C(O)O[C@H](CO)[C@@H](O)[C@@H]1O (stereo partly drawn) [Glucosamine],−9%,−0.9 ppb,–,–
CC(=O)N[C@@H](CS)C(=O)O [N-Acetylcysteine],19%,4.1 ppb,–,–
Fucoidan [Fucoidan (10%)],23%,4.7 ppb,−52%,−55.9 cmH2O
"CC(O)CO (stereo not drawn) [1,2-Propanediol]",217%,27.9 ppb,−16%,−14.7 cmH2O
Inulin [Inulin (15%)],12%,1.8 ppb,−31%,−26.5 cmH2O
"O=C(CO)[C@@H](O)[C@H](O)[C@H](O)CO [Fructose (60%), Fructose]",88%,13.1 ppb,–,–
C[C@H](O)[C@@H](O)[C@@H](O)[C@H](O)C=O [Fucose],22%,4.1 ppb,–,–
OCC(O)CO [Glycerol],475 ± 120%,63.3 ± 10.5 ppb,–,–
O=C(O)[C@H](O)[C@@H](O)[C@H](O[C@@H]1O[C@H](CO)[C@H](O)[C@H](O)[C@H]1O)[C@H](O)CO [Lactobionic acid],42%,8.3 ppb,−35%,−32.4 cmH2O
"OC[C@@H](O)[C@@H](O)[C@H](O)[C@H](O)CO [Mannitol (20%), Mannitol]",55.6%,4.7 ppb,–,–
"COC1O[C@H](CO)[C@@H](O)[C@H]1O (stereo partly drawn) [1-O-methyI-Ribose, 1-O-methyl-ribose]",1284%,155.9 ppb,−50%,−50.0 cmH2O
CCO [Etanol],0%,0 ppb,0%,0 cmH2O
Polyethylene glycol,61%,11.2 ppb,−19%,−17.6 cmH2O
NCC(=O)O [Glycine],−4%,−0.6 ppb,–,–
CC(O)C(=O)O (stereo not drawn) [Lactate],0%,0 ppb,−2%,−1.5 cmH2O
"NCC(O)CO (stereo not drawn) [3-Amino-1,2-propanediol]",0%,0 ppb,–,–
"OC[C@@H](O)[C@@H](O)[C@H](O)[C@@H](O)CO [Sorbitol (60%), Sorbitol]",60%,4.2 ppb,–,–
"OCCCO [1,3-Propanediol]",562%,78.2 ppb,−33%,−38.2 cmH2O
"OC[C@H]1O[C@@](CO)(O[C@H]2O[C@H](CO)[C@@H](O)[C@H](O)[C@H]2O)[C@@H](O)[C@@H]1O [Sucrose (60%), Sucrose]",75%,11.2 ppb,–,–
"O=C[C@H](O)[C@H](O)[C@H](O)CO [Ribose (50%), Ribose]",77 ± 43%,8.2 ± 3.0 ppb,–,–
"CCCO [Carrier 1-Propanol, 1-Propanol]",733%,–,−11%,–

# Same assay, conditions: rabbit, in vivo
Molecule,"Exhaled NO, Change (%)","Exhaled NO, Change (absolute value)",effect as NO carrier / NO delivering capacity (words)
"O=C[C@H](O)[C@@H](O)[C@@H](O)[C@H](O)CO [Galactose (60%), Galactose]",41%,3.3 ppb,noticeable effect
N=C(N)NCCC[C@H](N)C(=O)O [Arginine],3%,0.6 ppb,–

# Tested on: pulmonary embolism / venous gas embolism in NO-synthesis inhibited animals
# Test: Treatment of embolism with NO in lipid emulsion in animals with inhibited NO production
# Assay type: in vivo
# Conditions: animal with inhibited NO production
# Description: It is contemplated that the NO infusion exerts vasodilatory effects in the pulmonary circulation, and/or mild vasodilatory effect on systemic circulation, and inhibits thrombocyte aggregation, or a combination of these effects.
# The beneficial effects may be induction of vasodilation in the pulmonary vasculature, inhibition of aggregation of thrombocytes and/or minor vasodilation in the whole or parts of the systemic circulation, for example in the coronary circulation.
row,Molecule,treatment of venous gas embolism
1,"[N]=O [inhaled nitric oxide, nitric oxide]",impossible to treat

# Tested on: artificially ventilated pentobarbital anaesthetized rabbits
# Test: Effects of L-NAME infusion in anaesthetised rabbit
# Conditions: L-NAME 30 mg kg^−1 throughout 10 min
# Description: The experiments were approved by the local animal ethics committee. […] The animals were placed in supine position and tracheotomised just below the cricoid cartilage to allow mechanical ventilation using a tracheal cannula with an outer diameter of 5 mm. […] The ventilator was supplied with NO-free air using a charcoal filter (110×11 cm). […] The minute ventilation was 0.64-0.96 l min^−1. To the other side arm a pressure transducer (Statham, Hato Rey, Puerto Rico) was connected thus monitoring the insufflation pressure. The gas from the ventilator outlet was led through a switching valve to either of two beakers creating a positive end-expiratory pressure (PEEP) of 1-2 CmH2O or 4-5 cmhbO. During the experiment the gas flow was altered between the lower PEEP (9 min) and the higher PEEP (1 min) with an interval of totally 10 min. […] A heparinized catheter was inserted in the left common carotid artery for blood pressure and heart rate recordings (pressure transducer, Statham, Hato Rey, Puerto Rico), and arterial blood sampling. Another catheter was inserted in the right jugular vein for drug and muscle emboli administration. […] The muscles from the anterior compartment of the right lower hind limb were resected and placed in normal saline. Hereafter the animals were allowed a 30-60 min intervention-free period to obtain stable circulatory conditions and stable concentrations of expired NO.
# NO concentration, in mixed exhaled gas, was continuously measured by means of a chemiluminescence based system (Niox, Aerocrine AB, Solna, Sweden) sampling at 100 ml min^−1 at the end of a mixing chamber connected to the ventilator exhaust. The full mixing of expired air thus measured on was intermittently checked by monitoring CO2 concentration in the same chamber. In a few experiments, gas for NO measurement was sampled from the trachea at the same point as for tidal CO2 measurements, thus yielding breath by breath NO concentrations. Calibration was done using certified NO standard gas in nitrogen (AGA Specialgas, Lidingδ, Sweden).
# Blood samples were collected and analyzed for blood gases and acid-base status (ABL 300, Radiometer A/S, Copenhagen, Denmark) before L-NAME administration (group 2, time=−40 min) and shortly before muscle emboli challenge (group 1 and 2, time=−5 min). […] Arterial blood samples were collected and analysed at 10 min, 20 min, 40 min and 60 min after embolization. NO concentration in exhaled gas, end-tidal CO2, heart rate, mean arterial pressure and insufflation pressure was continuously monitored on a Grass Polygraph (Grass Instruments Co, Quincy, Mass., USA) during the experiments.
Molecule,End-tidal CO2 and the relevant blood gas parameters,exhaled nitric oxide after L-NAME infusion,heart rate (HR) after L-NAME infusion,systemic mean arterial blood pressure (MAP) after L-NAME infusion
"COC(=O)[C@@H](N)CCCNC(=N)N[N+](=O)[O-] [L-NAME, N^G-nitro-L-arginine methyl ester]",normal,< 1 ppb,258 beats min^−1,128 cmHaO
